{
  "source": "patent US9927437B2",
  "about": "“Treating neurodegenerative disease” (THE BRIGHAM AND WOMEN'S HOSPITAL, INC., priority 2013, dated 2018)",
  "key": {"inflammatory monocytes": {"system": "inflammatory monocytes", "experiment": "Recruitment of inflammatory monocytes to the CNS of EAE NOD mice (flow cytometry)", "assay_type": "in vivo, mouse", "conditions": "daily Miglustat from onset of progressive phase"}, "primary astrocytes": {"system": "primary astrocytes", "experiment": "Activation of cultured primary astrocytes, mRNA expression", "assay_type": "cell-based, mouse", "conditions": "primary mouse astrocytes activated with LPS/IFNγ; Miglustat", "experimental": "FIGS. 3a-m. LacCer produced by B4GALT6 acts in an autocrine manner to boost astrocyte activation. Cultured astrocytes were pre-treated for 1 h with PDMP (25 μM), LacCer (10 μM), both (LacCer+PDMP), or vehicle (vehicle), followed by activation with lipopolysaccharide (100 ng/ml) and Interferon-γ (100 Units/ml) (LPS/IFNγ) or left un-treated (control). (a) Heatmap depicting mRNA expression, as detected by Nanostring nCounter analysis, in astrocytes stimulated with LPS/IFNγ. Representative data of three independent experiments. (b) Histogram presentation of the normalized gene expression presented in (a), statistical analysis by one-way ANOVA followed by Tukey post-hoc analysis. (c-i) The expression of B4galt5 (shB4galt5), B4galt6 (shB4galt6) or non-targeting shRNA (ShControl) in C8-D30 astrocytes was knocked-down using verified shRNA (n≥4). (c) qRT analysis of B4galt5 and B4galt6 mRNA expression. (d-f) astrocytes were activated as in (a) and mRNA expression for (d) H2-Aa, (e) Ccl5 and (f) Cxcl10 was determined; expression is presented relative to house keeping gene (Gapdh) (n≥4). (g) Schematic map of the astrocyte-specific shRNA lentiviral vector. […] NOD mice were injected i.c.v. with 1×10^7 IU of shControl, shB4galt5 or shB4galt6 lentivirus, at day 35 after EAE induction (progressive phase). n=10 mice per group (h, i) 10 days after i.c.v. injection experiment was terminated and (h) b4galt5 and b4galt6 expression levels were determined by qPCR in astrocytes isolated from naïve or EAE NOD mice; expression normalized to gapdh and presented relative to that of cells from naïve mice. Representative data of two independent experiments, Statistical analysis by one-way ANOVA, followed by Tukey post-hoc analysis. (i) LacCer levels were quantified of in the CNS of naïve or EAE NOD mice treated as shown in (j). Statistical analysis by one-way ANOVA, followed by Tukey post-hoc analysis. (j) EAE clinical scores. Representative data of two independent experiments. Statistical analysis as in (FIG. 1a). (k) Cultured primary astrocytes were pre-treated for 1 h with PDMP (25 μM), LacCer (10 μM), both (LacCer+PDMP), or vehicle control (vehicle), followed by activation with LPS/IFNγ for 45 min, or left un-treated (control, Con). IRF-1 and Lamin B expression in the nuclear fraction analyzed by western blot and the degree of IRF-1 translocation to the nucleus was assessed by the ratio between the expression of IRF-1 and Lamin-B in the nuclear fractions following densitometric quantification on four independent experiments (right panel). Statistical analysis by one-way ANOVA, followed by Tukey post-hoc analysis. (l) ChIP analysis of the interaction of NF-κB, and IRF-1 with the) nos2 promoter in primary cultured astrocytes. Experimental design and data analysis as in (FIG. 4c). Data from two independent experiments (m) qPCR analysis of the expression of nos2, csf2, ccl2, ccl5, il6, and tlr2 in astrocyte cultures established from WT or IRF-1 deficient (IRF-1 KO) mice, pre-treated with LacCer or vehicle, and activated with LPS/IFNγ. […]\nFIGS. 14a-g. […] (a) Cultured astrocytes were pre-treated for 1 h with PDMP (25 μM), LacCer (10 μM), both (LacCer+PDMP), or vehicle control (vehicle), followed by activation with LPS/IFNγ for 6 h, or left un-treated (control, Con). mRNA expression was analyzed 6 h following activation. qPCR analysis of the expression of cc/5, csf2, nos2, il6, H2-Aa, and tlr2 presented relative to gapdh. […]"}, "EAE NOD mice": {"system": "EAE NOD mice", "experiment": "EAE in NOD mice, progressive phase (clinical score, histopathology, body weight)", "assay_type": "in vivo", "conditions": "NOD EAE; for body weight: daily Miglustat"}, "T cells": {"system": "T cells", "experiment": "T-cell response in EAE mice (recall proliferation, cytokines, polarization)", "assay_type": "in vivo, mouse", "conditions": "for T-cell response: NOD EAE, daily Miglustat", "experimental": "FIGS. 9a-d. Depletion of reactive astrocytes reduces the recruitment of peripheral leukocytes to the CNS. (a-d). EAE was induced in WT or GFAP^TK F1 hybrid mice and Ganciclovir (GCV) or vehicle control (PBS) was administered as in FIG. 1b. Data are representative of three independent experiments with n≥7 mice/group (means and s.e.m.). (a) Effect of GCV administration on reactive astrocytes detected by GFAP staining (b) Recruitment of monocytes (red gate) and lymphocytes (green gate) to the CNS assessed by FACS. Data are representative of three independent experiments. Statistical analysis by Student's t-test. (c, d) Effect of the depletion of reactive astrocytes during the chronic phase of EAE on the recall proliferative response to MOG(35-55) or anti-CD3 (c) and the expression of IFN-γ, IL-17A, Foxp3 and IL-10 in splenic CD4+ T cells (d). *P<0.05, and (n.s) not significant.\nFIGS. 12a-i. […] (a) Naïve C57BL/6 (Left panel) and NOD (right panel) mice were treated with LacCer (10 μg per mouse) or vehicle as indicated by red arrows, and EAE clinical scores was recorded. At experimental end point (day 25), astrocytes were isolated and their transcriptional profile was determined by nCounter Nanostring analysis. (b-e) EAE was induced in C57BL/6 (b, c) or NOD mice (d, e) and LacCer or vehicle were administrated as in FIGS. 1g and 1h, respectively. Splenic T-cell recall response to MOG(35-55) (20 μg/ml); proliferation (b, d) and secretion of IL-17A, IFN-γ and IL-10 cytokines (c, e). Data are representative of two independent experiments with ≥8 mice/group (mean and s.e.m.). (f-i) EAE NOD mice were treated with PDMP or vehicle during the chronic phase as in FIG. 1K. Data are representative of three independent experiments with n≥8 mice/group (mean and s.e.m.). (f) qPCR analysis of the expression of tbx21, ifng, rorc, il17A, csf2, il10, foxp3, and tgfb1 mRNA of CD3^+CD4^+ T-cells isolated from the CNS; expression is presented relative to gapdh. (g, h) Recall response to MOG(35-55) (20 μg/ml); proliferation (g) and secretion of IL-17A, IFN-γ and IL-10 cytokines (h). (i) Expression of IFN-γ, IL-17A, Foxp3 and IL-10 by splenic CD3^+CD4^+ T cells (mean and s.e.m.).\nSplenocytes and lymph node cells were cultured in X-VIVO medium and were plated for 72 h at a density of 5×10^5 cells per well in the presence of MOG35-55 peptide. During the final 16 h, cells were pulsed with […] [3H]thymidine (PerkinElmer), followed by collection on glass fiber filters and analysis of incorporated [3H]thymidine in a-counter (1450 MicroBeta TriLux; PerkinElmer). Supernatants were collect after 48 h of culture for cytokine measurement by enzyme-linked immunosorbent assay^14. For intracellular cytokine staining, cells were stimulated for 6 h with PMA (phorbol 12-myristate 13-acetate; 50 ng/ml; Sigma), ionomycin (1 μg/ml; Sigma) and monensin (GolgiStop; […]; BD Biosciences). After staining of surface markers, cells were fixed and made permeable according to the manufacturer's instructions BD Cytofix/Cytoperm™ Kit (BD Biosciences), or Foxp3 Fixation/Permeabilization (Ebiosceince)."}, "reactive astrocytes": {"system": "reactive astrocytes", "experiment": "EAE in F1 NOD C57BL/6 GFAP-HSV-TK hybrid mice, depletion of reactive astrocytes", "assay_type": "in vivo, mouse"}},
  "note": "“Also recorded” adds a separate entry of the source.",
  "data": [
    {"smiles": "CCCCN1C[C@H](O)[C@@H](O)[C@H](O)[C@H]1CO", "note": "[Miglustat, N-butyl-deoxynojirimycin]", "values": [
      {"measurement": "recruitment of inflammatory monocytes to the CNS", "setting": "inflammatory monocytes", "value": "reduced the recruitment; also recorded: reduces monocytes recruitment"},
      {"measurement": "astrocyte activation", "setting": "primary astrocytes", "value": "inhibits astrocyte activation"},
      {"measurement": "body weight", "setting": "EAE NOD mice", "value": "does not affect body weight"},
      {"measurement": "body weight", "setting": "EAE NOD mice; listed as miglustat", "value": "did not affect"},
      {"measurement": "clinical course of EAE disease progression", "setting": "EAE NOD mice; daily from onset of progressive phase, oral 1800 or 600 mg/kg, or nasal 900 mg/kg twice a day", "value": "suppressed the clinical course of disease progression; also recorded: halts chronic EAE progression"},
      {"measurement": "T-cell response", "setting": "T cells", "value": "does not affect T-cell polarization"},
      {"measurement": "T-cell response", "setting": "T cells; listed as miglustat", "value": "did not affect"}
    ]},
    {"smiles": "Nc1nc(O)c2ncn(COC(CO)CO)c2n1", "note": "[GCV, Ganciclovir]", "values": [
      {"measurement": "EAE scores, astrocyte depletion during the progressive phase", "setting": "reactive astrocytes; 25 mg/kg daily s.c. days 30-50", "value": "significant amelioration of EAE"},
      {"measurement": "EAE scores, astrocyte depletion during the acute phase", "setting": "reactive astrocytes; 25 mg/kg daily s.c. from 7 days before induction until day 15", "value": "significant worsening of EAE"},
      {"measurement": "leukocyte infiltration in the CNS", "setting": "reactive astrocytes; treatment during progressive phase, FACS", "value": "decreased leukocyte infiltration"},
      {"measurement": "peripheral T-cell response", "setting": "T cells; GFAP-TK F1 mice, GCV during progressive phase", "value": "did not affect"}
    ]}
  ]
}
